In the test the test system is A431 human epidermoid cells. Nature of the test: Oxidative damage protection assay (Example 3), compound with 1 mM H2O2, alamar blue readout. It counts as cell-based. How it is done: The cells were trypsinized with 0.25% trypsin EDTA solution for 2-3 minutes until the cells were dislodged. The cells were sub-cultured in a ratio of 1:3 for further growth and scale-up for the assay. The cells were trypsinized and counted to a density of 5,000 or 15,000 cells and seeded in 100 μL media per well, in 96-well clear bottom black plates. The outer wells at the periphery of the plates were left unneeded and were instead filled with media to reduce the edge effect during incubation. […] Each concentration was tested in 6 replicates.
Detection method used: Cell Titer blue (Promega, Cat# G8080).

As to `CC(=O)OC[C@H]1O[C@@H](N2C=CCC(C(N)=O)=C2)[C@H](OC(C)=O)[C@@H]1OC(C)=O` [NRH triacetate (2), 1-(2′,3′,5′-triacetyl-beta-D-ribofuranosyl)-1,4-dihydronicotinamide], for the setting “Trial A, FIG. 1, 1 mM H2O2 for 20 hours, all doses (0.1, 0.3, 1 mM)”, the “mitigating oxidative damage to human skin cells” value is on record as “capable of mitigating oxidative damage”. In addition, the “cytoprotection compared to positive controls” value runs as follows: (Trial A, FIG. 1, 1 mM H2O2 for 20 hours, dose-dependent, highest over 0.1-1 mM) “up to 88%”; (Trial B, FIG. 2, 1 mM H2O2, compound at 1 mM) 94%. For the same compound, the “protection against oxidative damage in skin cells” value (composite of Trials A and B, FIG. 3) is listed as “can protect against oxidative damage”.
